Results reported in US9637469B2, “Pyridine derivative” (Teijin Pharma Limited, priority 2012, dated 2017).

Target: T1, human URAT1 (Homo sapiens, UniProt Q96S37)
T1 construct: Full-length cDNA of human URAT1 (hURAT1)
T1 sequence (Q96S37 1-553): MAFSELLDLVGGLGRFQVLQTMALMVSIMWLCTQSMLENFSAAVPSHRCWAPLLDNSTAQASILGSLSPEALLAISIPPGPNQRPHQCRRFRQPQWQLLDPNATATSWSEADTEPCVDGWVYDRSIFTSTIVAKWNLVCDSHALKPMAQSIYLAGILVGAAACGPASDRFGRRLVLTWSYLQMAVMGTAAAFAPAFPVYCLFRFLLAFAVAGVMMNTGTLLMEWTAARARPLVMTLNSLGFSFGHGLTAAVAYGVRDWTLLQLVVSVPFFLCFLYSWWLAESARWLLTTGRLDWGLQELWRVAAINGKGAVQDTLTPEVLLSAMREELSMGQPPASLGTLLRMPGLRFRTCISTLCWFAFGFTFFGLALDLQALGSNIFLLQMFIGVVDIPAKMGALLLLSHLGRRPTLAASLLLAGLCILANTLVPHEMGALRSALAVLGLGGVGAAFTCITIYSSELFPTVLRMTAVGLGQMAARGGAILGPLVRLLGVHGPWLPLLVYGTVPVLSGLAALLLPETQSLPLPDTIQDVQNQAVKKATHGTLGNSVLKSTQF
Experiment: Test for inhibition of uric acid transport using human URAT1-expressing cells;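 further: three stars up to 0.2 µM two stars 0.2-2 µM one star 2-20 µM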
Format: cell-based
Details: HEK 293 cells expressing human URAT1, 14C-labeled uric acid 25 μM, uptake 37° C. for 5 min; for IC50: read-out: Inhibitory Activity (IC50 of uric acid transport inhibition)
In short: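 IC50 values reflect inhibition of ¹⁴C-uric acid uptake (25 μM final, 5 min, 37 °C) by compound. Cells were HEK293 stably expressing full-length human URAT1, preincubated in Na-gluconate-substituted HBSS. Radioactivity in lysates was expressed relative to DMSO control as 100%.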

Row | Compound | Inhibitory Activity (IC50 of uric acid transport inhibition) | IC50 [µM]
1 | Cc1nc(-c2cncc(F)c2)n(Cc2sc(Cl)cc2Cl)c1C(=O)O [Compound A228, 1-((2,4-dichlorothiophen-5-yl)methyl)-2-(5-fluoropyridin-3-yl)-4-methyl-1H-imidazole-5-carboxylic acid] | * * | –
2 | Cc1nc(-c2cncc(Cl)c2)n(Cc2sc(Cl)cc2Cl)c1C(=O)O [Compound A229, 2-(5-chloropyridin-3-yl)-1-((2,4-dichlorothiophen-5-yl)methyl)-4-methyl-1H-imidazole-5-carboxylic acid] | * * | –
3 | Cc1cncc(-c2nc(C)c(C(=O)O)n2Cc2sc(Cl)cc2Cl)c1 [Compound A230, 1-((2,4-dichlorothiophen-5-yl)methyl)-4-methyl-2-(5-methylpyridin-3-yl)-1H-imidazole-5-carboxylic acid] | * * | –
4 | Cc1cncc(-c2nc(C)c(C(=O)O)n2Cc2cc(C)ccc2Cl)c1 [Compound A231, 1-(2-chloro-5-methylbenzyl)-4-methyl-2-(5-methylpyridin-3-yl)-1H-imidazole-5-carboxylic acid] | * * * | –
5 | Cc1ccc(Cl)c(Cn2c(-c3cncc(Cl)c3)nc(C)c2C(=O)O)c1 [Compound A232, 1-(2-chloro-5-methylbenzyl)-2-(5-chloropyridin-3-yl)-4-methyl-1H-imidazole-5-carboxylic acid] | * * * | –
6 | Cc1nc(-c2cncc(F)c2)n(Cc2cccc3ccsc23)c1C(=O)O [Compound A234, 1-(benzo[b]thiophen-7-ylmethyl)-2-(5-fluoropyridin-3-yl)-4-methyl-1H-imidazole-5-carboxylic acid] | * * | –
7 | CC(C)c1nc(-c2cncc(Cl)c2)n(Cc2cccc3ccsc23)c1C(=O)O [Compound A235, 1-(benzo[b]thiophen-7-ylmethyl)-2-(5-chloropyridin-3-yl)-4-isopropyl-1H-imidazole-5-carboxylic acid] | * * * | –
8 | O=C(O)c1c(C2CC2)nc(-c2cncc(Cl)c2)n1Cc1cccc2ccsc12 [Compound A236, 1-(benzo[b]thiophen-7-ylmethyl)-2-(5-chloropyridin-3-yl)-4-cyclopropyl-1H-imidazole-5-carboxylic acid] | * * * | –
9 | Clc1cncc(-c2ncc(-c3nnn[nH]3)n2Cc2cc(Cl)ccc2Cl)c1 [Compound A237, 3-chloro-5-(1-(2,5-dichlorobenzyl)-5-(1H-tetrazol-5-yl)-1H-imidazol-2-yl)pyridine] | * * * | –
10 | Cc1ccc(C)c(Cn2c(-c3ccncc3)nc(C)c2C(=O)O)c1 [Compound A238, 1-(2,5-dimethylbenzyl)-4-methyl-2-(pyridin-4-yl)-1H-imidazole-5-carboxylic acid] | * * | –
11 | Cc1nc(-c2ccncc2)n(Cc2cccc3ccccc23)c1C(=O)O [Compound A239] | – | 2 to 20
12 | COc1cccc(-c2nc(C)c(C(=O)O)n2Cc2cccc3ccccc23)n1 [Compound A240, 2-(6-methoxypyridin-2-yl)-4-methyl-1-(naphthalen-1-ylmethyl)-1H-imidazole-5-carboxylic acid] | * * | –
13 | Cc1ccc2ccccc2c1Cn1c(-c2ccccn2)nc(C)c1C(=O)O [Compound A241] | – | 2 to 20
14 | Cc1nc(-c2ccnc(Cl)c2)n(Cc2cccc3ccccc23)c1C(=O)O [Compound A242] | – | 2 to 20
15 | Cc1nc(-c2ccccn2)n(Cc2cccc3ccccc23)c1C(=O)O [Compound A243] | – | 2 to 20
16 | Cc1nc(-c2ccncc2)n(Cc2cc(Cl)ccc2Cl)c1C(=O)O [Compound A244, 1-(2,5-dichlorobenzyl)-4-methyl-2-(pyridin-4-yl)-1H-imidazole-5-carboxylic acid] | * * | –
17 | Cc1nc(-c2ccccn2)n(Cc2cc(Cl)ccc2Cl)c1C(=O)O [Compound A245, 1-(2,5-dichlorobenzyl)-4-methyl-2-(pyridin-2-yl)-1H-imidazole-5-carboxylic acid] | * * * | –
18 | COc1cccc(-c2nc(C)c(C(=O)O)n2Cc2cc(Cl)ccc2Cl)n1 [Compound A246, 1-(2,5-dichlorobenzyl)-2-(6-methoxypyridin-2-yl)-4-methyl-1H-imidazole-5-carboxylic acid] | * * | –
19 | Cc1nc(Oc2ccccn2)n(Cc2cc(Cl)ccc2Cl)c1C(=O)O [Compound A247, 1-(2,5-dichlorobenzyl)-4-methyl-2-(pyridin-2-yloxy)-1H-imidazole-5-carboxylic acid] | * * | –
20 | Cc1nc(Oc2cccnc2)n(Cc2cc(Cl)ccc2Cl)c1C(=O)O [Compound A248, 1-(2,5-dichlorobenzyl)-4-methyl-2-(pyridin-3-yloxy)-1H-imidazole-5-carboxylic acid] | * * * | –
21 | Cc1nc(Oc2cncc(Cl)c2)n(Cc2cc(Cl)ccc2Cl)c1C(=O)O [Compound A250, 2-((5-chloropyridin-3-yl)oxy)-1-(2,5-dichlorobenzyl)-4-methyl-1H-imidazole-5-carboxylic acid] | * * * | –
22 | Cc1nc(Oc2cncc(Br)c2)n(Cc2cc(Cl)ccc2Cl)c1C(=O)O [Compound A251, 2-((5-bromopyridin-3-yl)oxy)-1-(2,5-dichlorobenzyl)-4-methyl-1H-imidazole-5-carboxylic acid] | * * * | –
23 | Cc1ncccc1Oc1nc(C)c(C(=O)O)n1Cc1cc(Cl)ccc1Cl [Compound A252, 1-(2,5-dichlorobenzyl)-4-methyl-2-((2-methylpyridin-3-yl)oxy)-1H-imidazole-5-carboxylic acid] | * * * | –
24 | Cc1nc(Oc2cccnc2Cl)n(Cc2cc(Cl)ccc2Cl)c1C(=O)O [Compound A253, 2-((2-chloropyridin-3-yl)oxy)-1-(2,5-dichlorobenzyl)-4-methyl-1H-imidazole-5-carboxylic acid] | * * * | –
25 | Cc1nc(Oc2cccnc2Br)n(Cc2cc(Cl)ccc2Cl)c1C(=O)O [Compound A254, 2-((2-bromopyridin-3-yl)oxy)-1-(2,5-dichlorobenzyl)-4-methyl-1H-imidazole-5-carboxylic acid] | * * * | –
26 | Cc1cncc(Oc2nc(C)c(C(=O)O)n2Cc2cc(Cl)ccc2Cl)c1 [Compound A255, 1-(2,5-dichlorobenzyl)-4-methyl-2-((5-methylpyridin-3-yl)oxy)-1H-imidazole-5-carboxylic acid] | * * * | –
27 | Cc1ccncc1Oc1nc(C)c(C(=O)O)n1Cc1cc(Cl)ccc1Cl [Compound A256, 1-(2,5-dichlorobenzyl)-4-methyl-2-((4-methylpyridin-3-yl)oxy)-1H-imidazole-5-carboxylic acid] | * * * | –
28 | Cc1nc(Oc2cnccc2Cl)n(Cc2cc(Cl)ccc2Cl)c1C(=O)O [Compound A257, 2-((4-chloropyridin-3-yl)oxy)-1-(2,5-dichlorobenzyl)-4-methyl-1H-imidazole-5-carboxylic acid] | * * * | –
